Laboratory results published in patent US4119667A, “Haloaniline derivatives as plant growth modifiers” (Rohm and Haas Company, priority 1974, dated 1978).
Counter-ions that a name gives are not always drawn.

System: soybean (Var. Clark)
Assay: greenhouse growth regulator test on soybean (Table I)
Type: in vivo
Conditions: 1/2 lbs/acre foliar spray, two weeks after application
Text: Limited greenhouse experiments shown that there is promotion of lateral bud growth when compounds are applied at higher concentrations and earlier timings and an increase in soybean pod numbers at lower rates applied just prior to or at the flowering stage. […] Three parameters are reported in Table I to indicate the general spectrum of activity for each evaluated compound including the propensity for releasing lateral bud growth in soybeans. These are: (a) plant height measured as percent inhibition relative to the control; (b) the number of lateral buds per plant; and (c) phytotoxic injury on a scale of 0 to 10 (10 being maximum injury). Sampling compounds were evaluated in the greenhouse in a special growth regulator test. Four to five soybean seeds (Var. Clark) were planted in 4-inch pots with a humus-soil mixture. Two weeks after planting, two uniform plants were selected from each pot for treatment. The candidate compounds were dissolved in acetone-water (1:1), and applied as a foliar spray in a carrier volume of 50 gallons per acre, using a moving belt sprayer at a rate of 1/4, 1/2 and 2 lbs/acre. Six plants were used for each treatment. Two weeks after application, the number of laterals per plant, plant injury (0-10 scale; 0 = no effect, 10 = complete kill,) and the height of each plant were recorded. Untreated plants were used as controls.

| SMILES | No. Laterals per plant |
| --- | --- |
| CCOC(CC)=Nc1cc(Cl)cc(Cl)c1 [XXII, Ethyl N-(3,5-dichlorophenyl)propionimidate] | 3 |
| Clc1cc(Cl)cc(N=CNc2cc(Cl)cc(Cl)c2)c1 [XIV, N,N'-Bis[3,5-dichlorophenyl]formamidine] | 3 |
| O=CNc1ccc(Cl)c(Cl)c1 [XIX, 3',4'-dichloroformanilide] | 0 |
| Clc1cc(Cl)cc(N=Cc2c(Cl)cccc2Cl)c1 [VIII, 3,5-dichloro-N-(2,6-dichlorobenzylidene)aniline] | 2 |
| Clc1ccc(C=Nc2ccc(Cl)c(Cl)c2)cc1 [XI, 3,4-dichloro-N-(4-chlorobenzylidene)aniline] | 5 |
| CCOC=Nc1cc(Cl)cc(Cl)c1 [XVI, Ethyl N-(3,5-dichlorophenyl)formimidate] | 4 |
| Clc1cccc(C=Nc2cc(Cl)cc(Cl)c2)c1 [VI, 3,5-dichloro-N-(3-chlorobenzylidene)aniline] | 3 |
| Brc1cc(Br)cc(NCNc2cc(Br)cc(Br)c2)c1 [III, n,n'-bis[3,5-dibromophenyl]methanediamine] | 0 |

Same assay, conditions: 1/2 lbs/acre foliar spray, two weeks after application, relative to control; HCl

| SMILES | Height (% inhib.) |
| --- | --- |
| Clc1ccc(N=CNc2ccc(Cl)c(Cl)c2)cc1Cl [XXI, n,n'-bis[3,4-dichlorophenyl]formamidine HCl] | 4 |

Same assay, conditions: 1/2 lbs/acre foliar spray, two weeks after application; HCl

| SMILES | No. Laterals per plant |
| --- | --- |
| Clc1ccc(N=CNc2ccc(Cl)c(Cl)c2)cc1Cl [XXI, n,n'-bis[3,4-dichlorophenyl]formamidine HCl] | 4 |

Same assay, conditions: 1/2 lbs/acre; 0-10 scale; 0 = no effect, 10 = complete kill; two weeks after application

| SMILES | Injury (0-10) |
| --- | --- |
| CCOC(CC)=Nc1cc(Cl)cc(Cl)c1 [XXII, Ethyl N-(3,5-dichlorophenyl)propionimidate] | 1 |
| Clc1cc(Cl)cc(N=CNc2cc(Cl)cc(Cl)c2)c1 [XIV, N,N'-Bis[3,5-dichlorophenyl]formamidine] | 3 |
| O=CNc1ccc(Cl)c(Cl)c1 [XIX, 3',4'-dichloroformanilide] | 0 |
| Clc1cc(Cl)cc(N=Cc2c(Cl)cccc2Cl)c1 [VIII, 3,5-dichloro-N-(2,6-dichlorobenzylidene)aniline] | 0 |
| Clc1ccc(C=Nc2ccc(Cl)c(Cl)c2)cc1 [XI, 3,4-dichloro-N-(4-chlorobenzylidene)aniline] | 1 |
| CCOC=Nc1cc(Cl)cc(Cl)c1 [XVI, Ethyl N-(3,5-dichlorophenyl)formimidate] | 1 |
| Clc1cccc(C=Nc2cc(Cl)cc(Cl)c2)c1 [VI, 3,5-dichloro-N-(3-chlorobenzylidene)aniline] | 1 |
| Brc1cc(Br)cc(NCNc2cc(Br)cc(Br)c2)c1 [III, n,n'-bis[3,5-dibromophenyl]methanediamine] | 1 |

Same assay, conditions: 1/2 lbs/acre; 0-10 scale; 0 = no effect, 10 = complete kill; two weeks after application; HCl

| SMILES | Injury (0-10) |
| --- | --- |
| Clc1ccc(N=CNc2ccc(Cl)c(Cl)c2)cc1Cl [XXI, n,n'-bis[3,4-dichlorophenyl]formamidine HCl] | 1 |

Same assay, conditions: 1/4 lbs/acre foliar spray, two weeks after application

| SMILES | No. Laterals per plant |
| --- | --- |
| CCOC(CC)=Nc1cc(Cl)cc(Cl)c1 [XXII, Ethyl N-(3,5-dichlorophenyl)propionimidate] | 1 |
| Clc1cc(Cl)cc(N=CNc2cc(Cl)cc(Cl)c2)c1 [XIV, N,N'-Bis[3,5-dichlorophenyl]formamidine] | 1 |
| O=CNc1ccc(Cl)c(Cl)c1 [XIX, 3',4'-dichloroformanilide] | 5 |
| Clc1cc(Cl)cc(N=Cc2c(Cl)cccc2Cl)c1 [VIII, 3,5-dichloro-N-(2,6-dichlorobenzylidene)aniline] | 0 |
| Clc1ccc(C=Nc2ccc(Cl)c(Cl)c2)cc1 [XI, 3,4-dichloro-N-(4-chlorobenzylidene)aniline] | 1 |
| CCOC=Nc1cc(Cl)cc(Cl)c1 [XVI, Ethyl N-(3,5-dichlorophenyl)formimidate] | 2 |
| Clc1cccc(C=Nc2cc(Cl)cc(Cl)c2)c1 [VI, 3,5-dichloro-N-(3-chlorobenzylidene)aniline] | 2 |
| Brc1cc(Br)cc(NCNc2cc(Br)cc(Br)c2)c1 [III, n,n'-bis[3,5-dibromophenyl]methanediamine] | 0 |

Same assay, conditions: 1/4 lbs/acre foliar spray, two weeks after application, relative to control; HCl

| SMILES | Height (% inhib.) |
| --- | --- |
| Clc1ccc(N=CNc2ccc(Cl)c(Cl)c2)cc1Cl [XXI, n,n'-bis[3,4-dichlorophenyl]formamidine HCl] | 0 |

Same assay, conditions: 1/4 lbs/acre foliar spray, two weeks after application; HCl

| SMILES | No. Laterals per plant |
| --- | --- |
| Clc1ccc(N=CNc2ccc(Cl)c(Cl)c2)cc1Cl [XXI, n,n'-bis[3,4-dichlorophenyl]formamidine HCl] | 1 |

Same assay, conditions: 1/4 lbs/acre; 0-10 scale; 0 = no effect, 10 = complete kill; two weeks after application

| SMILES | Injury (0-10) |
| --- | --- |
| CCOC(CC)=Nc1cc(Cl)cc(Cl)c1 [XXII, Ethyl N-(3,5-dichlorophenyl)propionimidate] | 2 |
| Clc1cc(Cl)cc(N=CNc2cc(Cl)cc(Cl)c2)c1 [XIV, N,N'-Bis[3,5-dichlorophenyl]formamidine] | 2 |
| O=CNc1ccc(Cl)c(Cl)c1 [XIX, 3',4'-dichloroformanilide] | 1 |
| Clc1cc(Cl)cc(N=Cc2c(Cl)cccc2Cl)c1 [VIII, 3,5-dichloro-N-(2,6-dichlorobenzylidene)aniline] | 0 |
| Clc1ccc(C=Nc2ccc(Cl)c(Cl)c2)cc1 [XI, 3,4-dichloro-N-(4-chlorobenzylidene)aniline] | 0 |
| CCOC=Nc1cc(Cl)cc(Cl)c1 [XVI, Ethyl N-(3,5-dichlorophenyl)formimidate] | 1 |
| Clc1cccc(C=Nc2cc(Cl)cc(Cl)c2)c1 [VI, 3,5-dichloro-N-(3-chlorobenzylidene)aniline] | 2 |
| Brc1cc(Br)cc(NCNc2cc(Br)cc(Br)c2)c1 [III, n,n'-bis[3,5-dibromophenyl]methanediamine] | 1 |

Same assay, conditions: 1/4 lbs/acre; 0-10 scale; 0 = no effect, 10 = complete kill; two weeks after application; HCl

| SMILES | Injury (0-10) |
| --- | --- |
| Clc1ccc(N=CNc2ccc(Cl)c(Cl)c2)cc1Cl [XXI, n,n'-bis[3,4-dichlorophenyl]formamidine HCl] | 0 |

Same assay, conditions: 2 lbs/acre foliar spray, two weeks after application

| SMILES | No. Laterals per plant |
| --- | --- |
| CCOC(CC)=Nc1cc(Cl)cc(Cl)c1 [XXII, Ethyl N-(3,5-dichlorophenyl)propionimidate] | 3 |
| Clc1cc(Cl)cc(N=CNc2cc(Cl)cc(Cl)c2)c1 [XIV, N,N'-Bis[3,5-dichlorophenyl]formamidine] | 4 |
| O=CNc1ccc(Cl)c(Cl)c1 [XIX, 3',4'-dichloroformanilide] | 4 |
| Clc1cc(Cl)cc(N=Cc2c(Cl)cccc2Cl)c1 [VIII, 3,5-dichloro-N-(2,6-dichlorobenzylidene)aniline] | 5 |
| Clc1ccc(C=Nc2ccc(Cl)c(Cl)c2)cc1 [XI, 3,4-dichloro-N-(4-chlorobenzylidene)aniline] | 4 |
| CCOC=Nc1cc(Cl)cc(Cl)c1 [XVI, Ethyl N-(3,5-dichlorophenyl)formimidate] | 5 |
| Clc1cccc(C=Nc2cc(Cl)cc(Cl)c2)c1 [VI, 3,5-dichloro-N-(3-chlorobenzylidene)aniline] | 5 |
| Brc1cc(Br)cc(NCNc2cc(Br)cc(Br)c2)c1 [III, n,n'-bis[3,5-dibromophenyl]methanediamine] | 3 |

Same assay, conditions: 2 lbs/acre foliar spray, two weeks after application, relative to control

| SMILES | Height (% inhib.) |
| --- | --- |
| Clc1cc(Cl)cc(N=CNc2cc(Cl)cc(Cl)c2)c1 [XIV, N,N'-Bis[3,5-dichlorophenyl]formamidine] | 4 |

Same assay, conditions: 2 lbs/acre foliar spray, two weeks after application, relative to control; HCl

| SMILES | Height (% inhib.) |
| --- | --- |
| Clc1ccc(N=CNc2ccc(Cl)c(Cl)c2)cc1Cl [XXI, n,n'-bis[3,4-dichlorophenyl]formamidine HCl] | 20 |

Same assay, conditions: 2 lbs/acre foliar spray, two weeks after application; HCl

| SMILES | No. Laterals per plant |
| --- | --- |
| Clc1ccc(N=CNc2ccc(Cl)c(Cl)c2)cc1Cl [XXI, n,n'-bis[3,4-dichlorophenyl]formamidine HCl] | 5 |

Same assay, conditions: 2 lbs/acre; 0-10 scale; 0 = no effect, 10 = complete kill; two weeks after application

| SMILES | Injury (0-10) |
| --- | --- |
| CCOC(CC)=Nc1cc(Cl)cc(Cl)c1 [XXII, Ethyl N-(3,5-dichlorophenyl)propionimidate] | 1 |
| Clc1cc(Cl)cc(N=CNc2cc(Cl)cc(Cl)c2)c1 [XIV, N,N'-Bis[3,5-dichlorophenyl]formamidine] | 0 |
| O=CNc1ccc(Cl)c(Cl)c1 [XIX, 3',4'-dichloroformanilide] | 3 |
| Clc1cc(Cl)cc(N=Cc2c(Cl)cccc2Cl)c1 [VIII, 3,5-dichloro-N-(2,6-dichlorobenzylidene)aniline] | 0 |
| Clc1ccc(C=Nc2ccc(Cl)c(Cl)c2)cc1 [XI, 3,4-dichloro-N-(4-chlorobenzylidene)aniline] | 3 |
| CCOC=Nc1cc(Cl)cc(Cl)c1 [XVI, Ethyl N-(3,5-dichlorophenyl)formimidate] | 2 |
| Clc1cccc(C=Nc2cc(Cl)cc(Cl)c2)c1 [VI, 3,5-dichloro-N-(3-chlorobenzylidene)aniline] | 1 |
| Brc1cc(Br)cc(NCNc2cc(Br)cc(Br)c2)c1 [III, n,n'-bis[3,5-dibromophenyl]methanediamine] | 1 |

Same assay, conditions: Glycine max, foliar, 336 h, 1/2 lbs/acre foliar spray, two weeks after application, relative to control; read-out: Height (% inhib.)

| SMILES | pest or weed control [%] |
| --- | --- |
| Clc1cc(Cl)cc(N=CNc2cc(Cl)cc(Cl)c2)c1 [XIV, N,N'-Bis[3,5-dichlorophenyl]formamidine] | 11 |
| O=CNc1ccc(Cl)c(Cl)c1 [XIX, 3',4'-dichloroformanilide] | 0 |
| Clc1cc(Cl)cc(N=Cc2c(Cl)cccc2Cl)c1 [VIII, 3,5-dichloro-N-(2,6-dichlorobenzylidene)aniline] | 7 |
| Clc1ccc(C=Nc2ccc(Cl)c(Cl)c2)cc1 [XI, 3,4-dichloro-N-(4-chlorobenzylidene)aniline] | 25 |
| CCOC=Nc1cc(Cl)cc(Cl)c1 [XVI, Ethyl N-(3,5-dichlorophenyl)formimidate] | 2 |
| Clc1cccc(C=Nc2cc(Cl)cc(Cl)c2)c1 [VI, 3,5-dichloro-N-(3-chlorobenzylidene)aniline] | 21 |
| Brc1cc(Br)cc(NCNc2cc(Br)cc(Br)c2)c1 [III, n,n'-bis[3,5-dibromophenyl]methanediamine] | 2 |

Same assay, conditions: Glycine max, foliar, 336 h, 1/4 lbs/acre foliar spray, two weeks after application, relative to control; read-out: Height (% inhib.)

| SMILES | pest or weed control [%] |
| --- | --- |
| Clc1cc(Cl)cc(N=CNc2cc(Cl)cc(Cl)c2)c1 [XIV, N,N'-Bis[3,5-dichlorophenyl]formamidine] | 13 |
| O=CNc1ccc(Cl)c(Cl)c1 [XIX, 3',4'-dichloroformanilide] | 2 |
| Clc1cc(Cl)cc(N=Cc2c(Cl)cccc2Cl)c1 [VIII, 3,5-dichloro-N-(2,6-dichlorobenzylidene)aniline] | 1 |
| Clc1ccc(C=Nc2ccc(Cl)c(Cl)c2)cc1 [XI, 3,4-dichloro-N-(4-chlorobenzylidene)aniline] | 4 |
| CCOC=Nc1cc(Cl)cc(Cl)c1 [XVI, Ethyl N-(3,5-dichlorophenyl)formimidate] | 0 |
| Brc1cc(Br)cc(NCNc2cc(Br)cc(Br)c2)c1 [III, n,n'-bis[3,5-dibromophenyl]methanediamine] | 0 |

Same assay, conditions: Glycine max, foliar, 336 h, 2 lbs/acre foliar spray, two weeks after application, relative to control; read-out: Height (% inhib.)

| SMILES | pest or weed control at 2241.7 g/ha [%] |
| --- | --- |
| O=CNc1ccc(Cl)c(Cl)c1 [XIX, 3',4'-dichloroformanilide] | 13 |
| Clc1cc(Cl)cc(N=Cc2c(Cl)cccc2Cl)c1 [VIII, 3,5-dichloro-N-(2,6-dichlorobenzylidene)aniline] | 15 |
| Clc1ccc(C=Nc2ccc(Cl)c(Cl)c2)cc1 [XI, 3,4-dichloro-N-(4-chlorobenzylidene)aniline] | 14 |
| CCOC=Nc1cc(Cl)cc(Cl)c1 [XVI, Ethyl N-(3,5-dichlorophenyl)formimidate] | 22 |
| Clc1cccc(C=Nc2cc(Cl)cc(Cl)c2)c1 [VI, 3,5-dichloro-N-(3-chlorobenzylidene)aniline] | 13 |
| Brc1cc(Br)cc(NCNc2cc(Br)cc(Br)c2)c1 [III, n,n'-bis[3,5-dibromophenyl]methanediamine] | 0 |
